Consider two molecules from patent publication US6235891A, “Glucocorticoid receptor agonist and decreased PP5” (South Alabama Medical Science Foundation, priority 1999, dated 2001).

Data set [1] deals with p21^Waf1/Cip1 mRNA. Put plainly: Northern analysis of p21Waf1/Cip1 mRNA in A549 cells. The format is cell-based, human. Conditions: dexamethasone 100 nM, 24 hours.
Description: The cells were harvested, and total RNA was extracted with TRIzol® Reagent according to the methods of the manufacturer. Total RNA (20 μg) was fractionated on 1% agarose gels containing formaldehyde and transferred to DURLON-UV nylon membranes (Stratagene). Following UV cross-linking, the filters were hybridized with a [α^32 P]probe for human PP5. […] Hybridization was performed in the presence of 50% formamide, 0.1 M Pipes, 0.8 M NaCl, 5×Denhardt's solution, 100 μg/ml denatured herring sperm DNA, 1×10^6 cpm/ml [α-^32 P]-labeled probe and 10% dextran sulfate at 42° C. for 16 hours. […] Quantification of hybridization signals was achieved by analysis of the scanned autoradiograms using the NIH Image program (ImagePC).
Referring to FIG. 1D, a comparison of p21^Waf1/Cip1 (p21) and serum glucocorticoid inducible protein kinase (sgk) mRNA levels in p53 competent (Lanes 3, 4) and p53 deficient (Lanes 1, 2, 5, 6) cell cultures after dexamethasone treatment is shown. […] After 24 hours total mRNA was prepared and analyzed for p21 and sgk mRNA levels by Northern analysis.
After 24 hours, 20 μg of total RNA was prepared and analyzed for serine/threonine protein phosphatase 5 (PP5), p21^Waf1/Cip1 (p21), and serum/glucocorticoid inducible kinase (sgk) mRNA levels. […]
Data set [2] has as its system p21^Waf1/Cip1 mRNA. The experiment in a line: Northern analysis of p21Waf1/Cip1 mRNA in T-24 cells. In kind it is cell-based, human. Conditions: dexamethasone 100 nM, 24 hours. The procedure:
(§1) The cells were harvested, and total RNA was extracted with TRIzol® Reagent according to the methods of the manufacturer. Total RNA (20 μg) was fractionated on 1% agarose gels containing formaldehyde and transferred to DURLON-UV nylon membranes (Stratagene). Following UV cross-linking, the filters were hybridized with a [α^32 P]probe for human PP5. The human PP5 cDNA probe was generated from the full length coding region of PP5 and [α^32 P]-dATP was labeled with DECAprime® DNA Labeling Kit according to the manufacturer's protocol. […] Quantification of hybridization signals was achieved by analysis of the scanned autoradiograms using the NIH Image program (ImagePC). […]
(§2) The antiproliferative effect of dexamethasone correlates with the presence of wild type p53 and the expression of p21^Waf1/Cip1 mRNA. Referring to FIGS. 1A-1C, the effect of dexamethasone on cell proliferation in p53-defective T-24 human bladder carcinoma, p53-null TR9 human fibroblasts (Webster et al. 1993; Maiyar et al. 1996), and p53 wild-type A549 human lung carcinoma cells was determined by treating cells in log-phase growth with a single dose of 100 nM dexamethasone and counting the number of cells in treated (.cndot.) and untreated (.box-solid.) cultures for six consecutive days following treatment. […] After 24 hours total mRNA was prepared and analyzed for p21 and sgk mRNA levels by Northern analysis.

In data set [3] the test system is p21^Waf1/Cip1 mRNA. Put plainly: Northern analysis of p21Waf1/Cip1 mRNA in TR9 cells. In kind it is cell-based, human. Conditions: dexamethasone 100 nM, 24 hours. The method, then: as §1, §2
For data set [4], the system named is GR luciferase reporter plasmid MMTV-luc. Put plainly: MMTV-Luc glucocorticoid-responsive luciferase reporter assay in A549 cells. The format is cell-based, human. Conditions: 300 nM ISIS 15534 without dexamethasone, dexamethasone ≥100 nM for 2 hours.
Description: Transfections and luciferase assays were conducted as described by Jones et al. (1996) using a mouse mammary tumor virus-luciferase reporter plasmid (MMTV-Luc). […] Briefly, A549 cells were transfected in serum-free medium with 1 μg MMTV-Luc plasmid DNA per 60 mm dish using 15 μg/ml Lipofectin. ODNs were added into the transfection media wherever applicable. After a 4-hour incubation, the medium was replaced with fresh complete culture medium, and the cells were cultured overnight. The cells were then treated with different amounts of dexamethasone for two hours. Cell extracts were prepared with reporter lysis buffer (Promega). […] Light production was measured for 20 seconds at 562 nm using a Monolight 2010 luminometer (Analytical Luminescence Lab., San Diego, Calif.). To control for difference in transfection efficiency, contransfections were performed with 1 μg of a plasmid encoding β-galactosidase controlled by the SV40 virus promoter (pSV-β-GAL). β-GAL activity was measured in 150 μl cell extracts using the β-Galactosidase Enzyme Assay System (Promega).
A549 cells were transiently transfected with GR luciferase reporter plasmid, MMTV-luc (Jones et al. 1996). […] The relative light units of the cell extract were calculated as an average of three independent experiments, performed in triplicate, and presented as relative luciferase activity with error bars indicating SD.
Data set [5] has as its system p53-null TR9 human fibroblasts. Put plainly: TR9 cell proliferation (cell counts). The format is cell-based. The settings on record: dexamethasone single dose 100 nM, counted six days. The procedure: (§3) The antiproliferative effect of dexamethasone correlates with the presence of wild type p53 and the expression of p21^Waf1/Cip1 mRNA. Referring to FIGS. 1A-1C, the effect of dexamethasone on cell proliferation in p53-defective T-24 human bladder carcinoma, p53-null TR9 human fibroblasts (Webster et al. 1993; Maiyar et al. 1996), and p53 wild-type A549 human lung carcinoma cells was determined by treating cells in log-phase growth with a single dose of 100 nM dexamethasone and counting the number of cells in treated (.cndot.) and untreated (.box-solid.) cultures for six consecutive days following treatment. Each point represents the mean of triplicate dishes with error bars representing SE. Under similar conditions, treatment with ISIS 15534, a potent inhibitor of PP5 gene expression, inhibited growth in A459 but not T-24 or TR9 cells (Zuo et al. 1998). Referring to FIG. 1D, a comparison of p21^Waf1/Cip1 (p21) and serum glucocorticoid inducible protein kinase (sgk) mRNA levels in p53 competent (Lanes 3, 4) and p53 deficient (Lanes 1, 2, 5, 6) cell cultures after dexamethasone treatment is shown. Cell cultures in logphase growth were treated with 100 nM dexamethasone (+) or vehicle alone as a control (-). After 24 hours total mRNA was prepared and analyzed for p21 and sgk mRNA levels by Northern analysis.

The subject of data set [6] is p53-defective T-24 human bladder carcinoma cells. The experiment in a line: T-24 cell proliferation (cell counts). Conditions: p53-defective T-24 cells; dexamethasone single dose 100 nM, counted six days. The format is cell-based. The procedure: as §3
The subject of a further data set is A549 cells. Put plainly: A549 cell proliferation (viable cell counts). In kind it is cell-based, human. The settings on record: for Decrease in proliferation compared to control: 300 nM; for Growth arrest: p53 wild-type A549 cells, dexamethasone single dose 100 nM, counted six days. The procedure:
A549 cells were treated with ISIS 15534 or its scrambled control, ISIS 15521 at a concentration of 300 nM. Each day for the next 5 days, viable cells were counted.
A549 cells were seeded in 12-well tissue culture plates at about 50% confluence in DMEM containing 10% fetal bovine serum. The next day, cells were treated with the PP5-specific antisense oligonucleotide, ISIS 15534, or its scrambled control, ISIS 15521, at a final concentration of 300 nM as described in Example 7. On each of the following 5 days, cultures from three wells of each treatment gruop were trypsinized, collected and counted. Cell viability was determined by trypan blue staining, and the results given are the mean of three independent experiments.
A549 cells were seeded in 12-well tissue culture plates at a density of 5.0×10^4 cell/dish. On the next day, the cells were treated with PP5 specific antisense oligonucleotides (ISIS 15534) or the scrambled mismatch control (ISIS 15521) at a final concentration of 300 nM as described above. On each of the next five days, the cell cultures were treated briefly with trypsin to detach the cells from the dish (three wells from each test group). The number of cells was then determined by counting using a hemacytometer. Cell viability was determined with trypan blue staining. The percentage of viable cells was calculated by dividing the number of cells excluding trypan blue by the total number of cells, and the results are reported as the mean +/- SD of data collected from three independent experiments.
as §3

Consider “ISIS 15534: chimeric PP5 antisense oligonucleotide, P=O wings, P=S deoxy gap; GGGCCCTATTGCTTGAGTGG, SEQ ID NO: 12 (sugars by position and backbone not given here; chimeric, phosphodiester wings, phosphorothioate deoxy gap)”, for which the figures for the “Expression of p21^Waf1/Cip1” value in the data set on p21^Waf1/Cip1 mRNA [1], with p21^Waf1/Cip1 mRNA [2] and in the data set with p21^Waf1/Cip1 mRNA [3] were “concomitant increase in the expression of p21^Waf1/Cip1”, “neither ISIS 15534 nor dexamethasone induced” and “neither ISIS 15534 nor dexamethasone induced”, respectively. In addition, the GR-reporter plasmid activation result in data set [4] is “induces glucocorticoid-mediated transcriptional activation”. Moreover, the Growth arrest entry in data set [5] is given as “neither ISIS 15534 nor dexamethasone induced”; in data set [6], “neither ISIS 15534 nor dexamethasone induced”; in the data set with A549 cells it was “produced growth arrest”. For the same molecule, the “Decrease in proliferation compared to control” value stood at 55% in the data set on A549 cells (day 2), 75% in the data set with A549 cells (day 3), 89% in the data set with A549 cells (day 4) and 55% with A549 cells (day 5).

`C[C@@H]1C[C@H]2[C@@H]3CCC4=CC(=O)C=C[C@]4(C)[C@@]3(F)[C@@H](O)C[C@]2(C)[C@@]1(O)C(=O)CO` [dexamethasone, reference compound]: the figures for the “Expression of p21^Waf1/Cip1” value in the data set with p21^Waf1/Cip1 mRNA [1], in the data set on p21^Waf1/Cip1 mRNA [2] and with p21^Waf1/Cip1 mRNA [3] were “concomitant increase in the expression of p21^Waf1/Cip1”, “neither ISIS 15534 nor dexamethasone induced” and “neither ISIS 15534 nor dexamethasone induced”, respectively. For the same molecule, in data set [4], the GR-reporter plasmid activation result is “more pronounced”. Besides, the Growth arrest entry in data set [5] is reported as “neither ISIS 15534 nor dexamethasone induced”; in data set [6], “neither ISIS 15534 nor dexamethasone induced”; in the data set on A549 cells, “produced growth arrest”. Besides, the “A549 cell growth when expression of p53 is suppressed with ISIS 8345” value in the data set on A549 cells (dexamethasone ≥100 nM) is “partially inhibit”.
